pIC50: −log10 of the molar value.

The assay has as its target T1, human recombinant A3AR (expressed in HEK-293 cells) (Homo sapiens, UniProt P0DMS8).
T1 construct: host or cells: HEK-293 cells
T1 sequence (P0DMS8 1-318): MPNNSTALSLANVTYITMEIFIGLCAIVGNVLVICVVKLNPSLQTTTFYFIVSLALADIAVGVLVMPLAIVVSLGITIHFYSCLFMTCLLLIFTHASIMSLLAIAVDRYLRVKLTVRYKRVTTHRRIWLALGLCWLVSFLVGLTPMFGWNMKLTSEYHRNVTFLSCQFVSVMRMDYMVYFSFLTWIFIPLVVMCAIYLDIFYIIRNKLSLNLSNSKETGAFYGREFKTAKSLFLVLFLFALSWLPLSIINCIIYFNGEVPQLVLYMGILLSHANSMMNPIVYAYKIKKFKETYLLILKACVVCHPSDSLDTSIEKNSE
Nature of the assay: Adenosine receptors antagonism assay (Eurofins), [125I]-AB-MECA radioligand competition. It is filed as binding. Conditions: [125I]-AB-MECA 0.15 nM, r.t., 120 min; IC50 from dose-response curves; read-out: Potency Class A3AR.
As to `CCC(CC)Nc1cc(NCCCc2ccncc2)c2nnc(C(C)C)n2n1` [compound 91, N6-(1-ethylpropyl)-3-isopropyl-N8-[3-(4-pyridyl)propyl]-[1,2,4]triazolo[4,3-b]pyridazine-6,8-diamine], the pIC50 was 8.00 to 9.00.

For `CC[C@H](CO)Nc1cc(NCc2ccc(N)cc2)c2nnc(C(C)C)n2n1` [compound 74, (2R)-2-[[8-[(4-aminophenyl)methylamino]-3-isopropyl-[1,2,4]triazolo[4,3-b]pyridazin-6-yl]amino]butan-1-ol], the pIC50 is 7.00 to 8.00.

Consider `CCC(CC)Nc1cc(NCCc2ccccc2)c2nnc(C(C)C)n2n1` [compound 82, N6-(1-ethylpropyl)-3-isopropyl-N8-(2-phenylethyl)-[1,2,4]triazolo[4,3-b]pyridazine-6,8-diamine], for which the pIC50 is 8.00 to 9.00.

Turning to `CC(C)c1nnc2c(NCc3ccccn3)cc(NC(C)(C)C)nn12` [compound 52, N6-tert-butyl-3-isopropyl-N8-(2-pyridylmethyl)-[1,2,4]triazolo[4,3-b]pyridazine-6,8-diamine], the pIC50 was 8.00 to 9.00.

As to `CCC(CC)Nc1cc(NCc2ccccn2)c2nnc(-c3cccnc3)n2n1` [compound 71, N6-(1-ethylpropyl)-3-(3-pyridyl)-N8-(2-pyridylmethyl)-[1,2,4]triazolo[4,3-b]pyridazine-6,8-diamine], the pIC50 was 7.00 to 8.00.

On to `COCCCNc1cc(NCc2ccccc2)c2nnc(C(F)(F)F)n2n1` [compound 36, N8-benzyl-N6-(3-methoxypropyl)-3-(trifluoromethyl)-[1,2,4]triazolo[4,3-b]pyridazine-6,8-diamine], for which the pIC50 is 7.00 to 8.00.

In the case of `CCC(CC)Nc1cc(NC(=O)c2ccccc2)c2nnc(C(C)C)n2n1` [compound 96, N-[6-(1-ethylpropylamino)-3-isopropyl-[1,2,4]triazolo[4,3-b]pyridazin-8-yl]benzamide], the pIC50 is 7.00 to 8.00.

Consider `COCCCNc1cc(NCc2ccccc2)c2nnc(C3CC3)n2n1` [compound 31, N8-benzyl-3-cyclopropyl-N6-(3-methoxypropyl)-[1,2,4]triazolo[4,3-b]pyridazine-6,8-diamine], for which the pIC50 was 7.00 to 8.00.

As to `CCC(CC)Nc1cc(Nc2ccccn2)c2nnc(C(C)C)n2n1` [compound 46, N6-(1-ethylpropyl)-3-isopropyl-N8-(2-pyridyl)-[1,2,4]triazolo[4,3-b]pyridazine-6,8-diamine], the pIC50 is over 9.00.

Take `CCC(CC)Nc1cc(NCc2cccc(O)c2)c2nnc(C(C)C)n2n1` [compound 41, 3-[[[6-(1-ethylpropylamino)-3-isopropyl-[1,2,4]triazolo[4,3-b]pyridazin-8-yl]amino]methyl]phenol]: the pIC50 was 8.00 to 9.00.

For the compound `CC1(CNc2cc(NCc3ccccn3)c3nnc(C4CC4)n3n2)CCC1` [compound 206, 3-cyclopropyl-N6-((1-methylcyclobutyl)methyl)-N8-(pyridin-2-ylmethyl)-[1,2,4]triazolo[4,3-b]pyridazine-6,8-diamine], the pIC50 was 8.00 to 9.00.

Take `CC(C)c1nnc2c(NCc3ccccc3)cc(N[C@@H]3CCOC3)nn12` [compound 19, N8-benzyl-3-isopropyl-N6-[(3R)-tetrahydrofuran-3-yl]-[1,2,4]triazolo[4,3-b]pyridazine-6,8-diamine]: the pIC50 is 7.00 to 8.00.

With `CC[C@@H](CO)Nc1cc(NCc2ccc(-c3ccccn3)cc2)c2nnc(C(C)C)n2n1` [compound 105, (2S)-2-[[3-isopropyl-8-[[4-(2-pyridyl)phenyl]methylamino]-[1,2,4]triazolo[4,3-b]pyridazin-6-yl]amino]butan-1-ol], the pIC50 is 7.00 to 8.00.

For the compound `CCC(CC)Nc1cc(NCc2ccccn2)c2nnc(C3CCC3)n2n1` [compound 63, 3-cyclobutyl-N6-(1-ethylpropyl)-N8-(2-pyridylmethyl)-[1,2,4]triazolo[4,3-b]pyridazine-6,8-diamine], the pIC50 was 8.00 to 9.00.

For the compound `CCC(CC)Nc1cc(NCc2ccccn2)c2nnc(C3CCCC3)n2n1` [compound 64, 3-cyclopentyl-N6-(1-ethylpropyl)-N8-(2-pyridylmethyl)-[1,2,4]triazolo[4,3-b]pyridazine-6,8-diamine], the pIC50 was 7.00 to 8.00.

In the case of `CCC(CC)Nc1cc(Nc2ncccc2OC)c2nnc(C(C)C)n2n1` [compound 157, 3-isopropyl-N8-(3-methoxypyridin-2-yl)-N6-(pentan-3-yl)-[1,2,4]triazolo[4,3-b]pyridazine-6,8-diamine], the pIC50 was 7.00 to 8.00.

Regarding `CCC(CC)Nc1cc(Nc2cc(OC)cnn2)c2nnc(C(C)C)n2n1` [compound 162, 3-isopropyl-N8-(5-methoxypyridazin-3-yl)-N6-(pentan-3-yl)-[1,2,4]triazolo[4,3-b]pyridazine-6,8-diamine], the pIC50 was over 9.00.

For the compound `CC(C)CNc1cc(NCc2ccccn2)c2nnc(C3CC3)n2n1` [compound 194, 3-cyclopropyl-N6-isobutyl-N8-(pyridin-2-ylmethyl)-[1,2,4]triazolo[4,3-b]pyridazine-6,8-diamine], the pIC50 is 7.00 to 8.00.

Turning to `c1ccc(CNc2cc(NCC3CC3)nn3c(C4CC4)nnc23)nc1` [compound 203, 3-cyclopropyl-N6-(cyclopropylmethyl)-N8-(pyridin-2-ylmethyl)-[1,2,4]triazolo[4,3-b]pyridazine-6,8-diamine], the pIC50 was 7.00 to 8.00.

With `CCC(CC)Nc1cc(NCCc2ccccn2)c2nnc(C(C)C)n2n1` [compound 83, N6-(1-ethylpropyl)-3-isopropyl-N8-[2-(2-pyridyl)ethyl]-[1,2,4]triazolo[4,3-b]pyridazine-6,8-diamine], the pIC50 is over 9.00.

In the case of `CC(C)c1nnc2c(NCc3ccccc3)cc(NCCCO)nn12` [compound 9, 3-[[8-(benzylamino)-3-isopropyl-[1,2,4]triazolo[4,3-b]pyridazin-6-yl]amino]propan-1-ol], the pIC50 was 6.00 to 7.00.

In the case of `CCC(CC)Nc1cc(N2Cc3ccccc3C2)c2nnc(C(C)C)n2n1` [compound 79, N-(1-ethylpropyl)-8-isoindolin-2-yl-3-isopropyl-[1,2,4]triazolo[4,3-b]pyridazin-6-amine], the pIC50 was 6.00 to 7.00.

For `CC(C)c1nnc2c(NCc3ccccc3)cc(N[C@H](CO)[C@@H](C)O)nn12` (stereo in doubt) [compound 5, (2R,3R)-2-[[8-(benzylamino)-3-isopropyl-[1,2,4]triazolo[4,3-b]pyridazin-6-yl]amino]butane-1,3-diol], the pIC50 was 6.00 to 7.00.

In the case of `CNc1cc(NCc2ccc(Br)cc2)c2nnc(C(C)C)n2n1` [compound 116, N8-[(4-bromophenyl)methyl]-3-isopropyl-N6-methyl-[1,2,4]triazolo[4,3-b]pyridazine-6,8-diamine], the pIC50 was 6.00 to 7.00.

`CCC(CC)Nc1cc(N2CCc3ccccc3C2)c2nnc(C(C)C)n2n1` [compound 80, 8-(3,4-dihydro-1H-isoquinolin-2-yl)-N-(1-ethylpropyl)-3-isopropyl-[1,2,4]triazolo[4,3-b]pyridazin-6-amine]: the pIC50 is 8.00 to 9.00.

As for `CCC(CC)CNc1cc(NCC(CC)CC)c2nnc(C(C)C)n2n1` [compound 167, N6,N8-bis(2-ethylbutyl)-3-isopropyl-[1,2,4]triazolo[4,3-b]pyridazine-6,8-diamine], the pIC50 is 8.00 to 9.00.

`c1ccc(CNc2cc(NC3CCCCC3)nn3c(C4CC4)nnc23)nc1` [compound 200, N6-cyclohexyl-3-cyclopropyl-N8-(pyridin-2-ylmethyl)-[1,2,4]triazolo[4,3-b]pyridazine-6,8-diamine]: the pIC50 was 8.00 to 9.00.

With `CCOC(=O)Nc1cc(NC(CC)CC)nn2c(C(C)C)nnc12` [compound 99, ethyl N-[6-(1-ethylpropylamino)-3-isopropyl-[1.2.4]triazolo[4,3-b]pyridazin-8-yl]carbamate], the pIC50 was 8.00 to 9.00.

Consider `CCC(CC)Nc1cc(Nc2cccnn2)c2nnc(C(C)C)n2n1` [compound 148, 3-isopropyl-N6-(pentan-3-yl)-N8-(pyridazin-3-yl)-[1,2,4]triazolo[4,3-b]pyridazine-6,8-diamine], for which the pIC50 was over 9.00.

With `CC[C@@H](CO)Nc1cc(NCc2ccc(-c3ccccc3)cc2)c2nnc(C(C)C)n2n1` [compound 102, (2S)-2-[[3-isopropyl-8-[(4-phenylphenyl)methylamino]-[1,2,4]triazolo[4,3-b]pyridazin-6-yl]amino]butan-1-ol], the pIC50 is 7.00 to 8.00.

In the case of `c1ccc(CNc2cc(NC3CCCCCC3)nn3c(C4CC4)nnc23)nc1` [compound 201, N6-cycloheptyl-3-cyclopropyl-N8-(pyridin-2-ylmethyl)-[1,2,4]triazolo[4,3-b]pyridazine-6,8-diamine], the pIC50 was 8.00 to 9.00.

As for `CC(C)c1nnc2c(NCc3ccccn3)cc(NC3CC(F)(F)C3)nn12` [compound 54, N6-(3,3-difluorocyclobutyl)-3-isopropyl-N8-(2-pyridylmethyl)-[1,2,4]triazolo[4,3-b]pyridazine-6,8-diamine], the pIC50 is 7.00 to 8.00.

As for `CC[C@@H](CO)Nc1cc(NCc2ccc(-c3cccnc3)cc2)c2nnc(C(C)C)n2n1` [compound 104, (2S)-2-[[3-isopropyl-8-[[4-(3-pyridyl)phenyl]methylamino]-[1,2,4]triazolo[4,3-b]pyridazin-6-yl]amino]butan-1-ol], the pIC50 is 7.00 to 8.00.

In the case of `CCC(CC)Nc1cc(NCc2cc3ccccc3[nH]2)c2nnc(C(C)C)n2n1` [compound 78, N6-(1-ethylpropyl)-N8-(1H-indol-2-ylmethyl)-3-isopropyl-[1,2,4]triazolo[4,3-b]pyridazine-6,8-diamine], the pIC50 was 7.00 to 8.00.

On to `CCC(CC)Nc1cc(Nc2ccccc2)c2nnc(C3CC3)n2n1` [compound 171, 3-cyclopropyl-N6-(1-ethylpropyl)-N8-phenyl-[1,2,4]triazolo[4,3-b]pyridazine-6,8-diamine], for which the pIC50 was over 9.00.

The values are drawn from EP4477653A1 (Perha Pharmaceuticals, priority 2023, dated 2024).
